≈ marks a conversion by molar mass, not a printed value. Like-named read-outs stand apart in the source and are kept apart here.
Key:
Assay type in all cases: cell-based
A. anitratus ATCC 19606 = test: Broth microdilution MIC, ATCC strains; conditions: Acinetobacter calcoaceticus, ATCC19606; A. anitratus ATCC 19606; read-out: MIC (growth inhibition, microdilution method)
How it was run: (§1)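 Clinical organisms, randomly drawn NAUTICA urinary isolates, and ATCC reference strains tested by NCCLS M7-A6 broth microdilution at 5×10^5 CFU/ml. Incubation 16 to 20 hours, 35° C, ambient air; MIC defined as lowest concentration without visible growth.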

B. cepacia ATCC 25416 = test: Broth microdilution MIC, ATCC strains; conditions: Burkholderia cepacia, ATCC25416; B. cepacia ATCC 25416; read-out: MIC (growth inhibition, microdilution method)
How it was run: as §1

E. aerogenes ATCC 13048 = test: Broth microdilution MIC, ATCC strains; conditions: Klebsiella aerogenes, ATCC13048; E. aerogenes ATCC 13048; read-out: MIC (growth inhibition, microdilution method)
How it was run: as §1

E. coli ATCC 25922 = test: Broth microdilution MIC, ATCC strains; conditions: Escherichia coli, ATCC25922, E. coli ATCC 25922; read-out: MIC (growth inhibition, microdilution method)
How it was run: as §1

E. faecalis ATCC 29212 = test: Broth microdilution MIC, ATCC strains; conditions: for MIC: Enterococcus faecalis, read-out: MIC (growth inhibition, microdilution method)
How it was run: as §1

K. oxytoca ATCC 49131 = test: Broth microdilution MIC, ATCC strains; conditions: Klebsiella oxytoca, ATCC49131; K. oxytoca ATCC 49131; read-out: MIC (growth inhibition, microdilution method)
How it was run: as §1

K. pneumoniae ATCC 13883 = test: Broth microdilution MIC, ATCC strains; conditions: Klebsiella pneumoniae, ATCC13883; K. pneumoniae ATCC 13883; read-out: MIC (growth inhibition, microdilution method)
How it was run: as §1

MRSA ATCC 33591 = test: Broth microdilution MIC, ATCC strains; conditions: Staphylococcus aureus; MRSA ATCC 33591; read-out: MIC (growth inhibition, microdilution method)
How it was run: as §1

P. vulgaris ATCC 49132 = test: Broth microdilution MIC, ATCC strains; conditions: Proteus vulgaris, ATCC49132; P. vulgaris ATCC 49132; read-out: MIC (growth inhibition, microdilution method)
How it was run: as §1

[1] = system: Ps. aeruginosa ATCC 27853; test: Broth microdilution MIC, ATCC strains; conditions: Pseudomonas aeruginosa, ATCC27853; Ps. aeruginosa ATCC 27853; read-out: MIC (growth inhibition, microdilution method)
How it was run: as §1

S. aureus ATCC 29213 = test: Broth microdilution MIC, ATCC strains; conditions: for MIC: Staphylococcus aureus, ATCC29213, S. aureus ATCC 29213, read-out: MIC (growth inhibition, microdilution method)
How it was run: as §1

[2] = system: S. maltophilia ATCC 13637; test: Broth microdilution MIC, ATCC strains; conditions: Stenotrophomonas maltophilia, ATCC13637; S. maltophilia ATCC 13637; read-out: MIC (growth inhibition, microdilution method)
How it was run: as §1

S. marcescens ATCC 8100 = test: Broth microdilution MIC, ATCC strains; conditions: Serratia marcescens, ATCC8100; S. marcescens ATCC 8100; read-out: MIC (growth inhibition, microdilution method)
How it was run: as §1

[3] = system: A. baumanii clinical isolates; test: Broth microdilution MIC, clinical isolate strains (NAUTICA); conditions: Table 4B; each table row is one clinical isolate; unit assumed
How it was run: as §1

[4] = system: B. cepacia clinical isolates; test: as above; conditions: Table 4B; each table row is one clinical isolate; unit assumed
How it was run: as §1

[5] = system: C. amalonaticus clinical isolates; test: as above; conditions: Table 4B; each table row is one clinical isolate; unit assumed
How it was run: as §1

[6] = system: C. freundii clinical isolates; test: as above; conditions: Table 4B; each table row is one clinical isolate; in µg/mL (unit assumed)
How it was run: as §1

[7] = system: C. koseril clinical isolates; test: as above; conditions: Table 4B; each table row is one clinical isolate; unit assumed
How it was run: as §1

[8] = system: E. aerogenes clinical isolates; test: as above; conditions: Table 4B; each table row is one clinical isolate; unit assumed
How it was run: as §1

[9] = system: E. cloacae clinical isolates; test: as above; conditions: Table 4B; each table row is one clinical isolate; unit assumed
How it was run: as §1

[10] = system: E. coli clinical isolates; test: as above; conditions: Table 4B; each table row is one clinical isolate; unit assumed
How it was run: as §1

[11] = system: K. oxytoca clinical isolates; test: as above; conditions: Table 4B; each table row is one clinical isolate; unit assumed
How it was run: as §1

[12] = system: K. pneumoniae clinical isolates; test: as above; conditions: Table 4B; each table row is one clinical isolate; unit assumed
How it was run: as §1

[13] = system: M. morganii clinical isolates; test: as above; conditions: Table 4B; each table row is one clinical isolate; unit assumed
How it was run: as §1

[14] = system: P. mirabilis clinical isolates; test: as above; conditions: Table 4B; each table row is one clinical isolate; unit assumed
How it was run: as §1

[15] = system: P. retgerri clinical isolates; test: as above; conditions: Table 4B; each table row is one clinical isolate; unit assumed
How it was run: as §1

[16] = system: P. stuartii clinical isolates; test: as above; conditions: Table 4B; each table row is one clinical isolate; unit assumed
How it was run: as §1

[17] = system: P. vulgaris clinical isolates; test: as above; conditions: Table 4B; each table row is one clinical isolate; unit assumed
How it was run: as §1

[18] = system: S. liquifaciens clinical isolates; test: as above; conditions: Table 4B; each table row is one clinical isolate; unit assumed
How it was run: as §1

[19] = system: S. maltophilia clinical isolates; test: as above; conditions: Table 4B; each table row is one clinical isolate; unit assumed
How it was run: as §1

[20] = system: S. marcescens clinical isolates; test: as above; conditions: Table 4B; each table row is one clinical isolate; unit assumed
How it was run: as §1

[21] = ATCC29212, E. faecalis ATCC 29212
[22] = ATCC29212, E. faecalis, ATCC number not given

Row | Structure (SMILES) | MIC (A. anitratus ATCC 19606) [µg/mL] | MIC (B. cepacia ATCC 25416) [µg/mL] | MIC (E. aerogenes ATCC 13048) [µg/mL] | MIC (E. coli ATCC 25922) [µg/mL] | MIC (E. faecalis ATCC 29212; [21]) [µg/mL] | MIC (E. faecalis ATCC 29212; [22]) [µg/mL] | MIC (K. oxytoca ATCC 49131) [µg/mL] | MIC (K. pneumoniae ATCC 13883) [µg/mL] | MIC (MRSA ATCC 33591) [µg/mL] | MIC (P. vulgaris ATCC 49132) [µg/mL] | MIC [1] [µg/mL] | MIC (S. aureus ATCC 29213) [µg/mL] | MIC [2] [µg/mL] | MIC (S. marcescens ATCC 8100) [µg/mL] | MIC, A. BAUMANII [3] [µg/mL] | MIC, B. CEPACIA [4] [µg/mL] | MIC, C. AMALONATICUS [5] [µg/mL] | MIC, C. FREUNDII [6] | MIC, C. KOSERI [7] [µg/mL] | MIC, E. AEROGENES [8] [µg/mL] | other results
1 | CCOC(=O)c1cc(-c2nnn(C)n2)c(-c2ccc(F)cc2)s1 [DNM-125, ethyl 5-(4-fluorophenyl)-4-(2-methyl-2H-tetrazol-5-yl)thiophene-2-carboxylate] | > 16 | > 16 | > 16 | > 16 | > 16 | > 16 | > 16 | > 16 | > 16 | > 16 | > 16 | > 16 | > 16 | > 16 | > 16 | > 16 | > 16 | >16 | > 16 | > 16 | MIC, E. CLOACAE [9]: > 16 µg/mL; MIC, E. COLI [10]: > 16 µg/mL; MIC, K. OXYTOCA [11]: > 16 µg/mL; MIC, K. PNEUMONIAE [12]: > 16 µg/mL; MIC, M. MORGANII [13]: > 16 µg/mL; MIC, P. MIRABILIS [14]: > 16 µg/mL; MIC, P. RETTGERI [15]: > 16 µg/mL; MIC, P. STUARTII [16]: > 16 µg/mL; MIC, P. VULGARIS [17]: > 16 µg/mL; MIC, S. LIQUEFACIENS [18]: > 16 µg/mL; MIC, S. MALTOPHILIA [19]: > 16 µg/mL; MIC, S. MARCESCENS [20]: > 16 µg/mL
2 | Fc1ccc(-c2cc(-c3nnn[nH]3)c(-c3ccc(F)cc3)s2)cc1 [DNM-131, 5-(2,5-Bis(4-fluorophenyl)thiophen-3-yl)-1H-tetrazole] | > 32 | > 32 | > 32 | > 32 | > 32 | 32 (≈ 94 µM) | > 32 | > 32 | > 32 | > 32 | > 32 | 32 (≈ 94 µM) | > 32 | > 32 | > 32 | > 32 | > 32 | >32 | > 32 | > 32 | MIC (growth inhibition, microdilution method) (E. faecalis ATCC 29212; E. faecalis, ATCC number not given): >32 µg/mL; MIC (growth inhibition, microdilution method) (S. aureus ATCC 29213; S. aureus ATCC 29213): >32 µg/mL; MIC, E. CLOACAE [9]: > 32 µg/mL; MIC, E. COLI [10]: > 32 µg/mL; MIC, K. OXYTOCA [11]: > 32 µg/mL; MIC, K. PNEUMONIAE [12]: > 32 µg/mL; MIC, M. MORGANII [13]: > 32 µg/mL; MIC, P. MIRABILIS [14]: > 32 µg/mL; MIC, P. RETTGERI [15]: > 32 µg/mL; MIC, P. STUARTII [16]: > 32 µg/mL; MIC, P. VULGARIS [17]: > 32 µg/mL; MIC, S. LIQUEFACIENS [18]: > 32 µg/mL; MIC, S. MALTOPHILIA [19]: > 32 µg/mL; MIC, S. MARCESCENS [20]: > 32 µg/mL
3 | Cn1nnc(-c2cc(-c3ccc(F)cc3)sc2-c2ccc(F)cc2)n1 [DNM-132, 5-(2,5-bis(4-fluorophenyl)thiophen-3-yl)-2-methyl-2H-tetrazole] | > 16 | > 16 | > 16 | > 16 | > 16 | > 16 | > 16 | > 16 | > 16 | > 16 | > 16 | > 16 | > 16 | > 16 | > 16 | > 16 | > 16 | >16 | > 16 | > 16 | MIC, E. CLOACAE [9]: > 16 µg/mL; MIC, E. COLI [10]: > 16 µg/mL; MIC, K. OXYTOCA [11]: > 16 µg/mL; MIC, K. PNEUMONIAE [12]: > 16 µg/mL; MIC, M. MORGANII [13]: > 16 µg/mL; MIC, P. MIRABILIS [14]: > 16 µg/mL; MIC, P. RETTGERI [15]: > 16 µg/mL; MIC, P. STUARTII [16]: > 16 µg/mL; MIC, P. VULGARIS [17]: > 16 µg/mL; MIC, S. LIQUEFACIENS [18]: > 16 µg/mL; MIC, S. MALTOPHILIA [19]: > 16 µg/mL; MIC, S. MARCESCENS [20]: > 16 µg/mL
4 | Cn1nnnc1-c1cc(-c2ccc(F)cc2)sc1-c1ccc(F)cc1 [DNM-133, 5-(2,5-Bis(4-fluorophenyl)thiophen-3-yl)-1-methyl-1H-tetrazole] | > 16 | > 16 | > 16 | > 16 | > 16 | > 16 | > 16 | > 16 | > 16 | > 16 | > 16 | > 16 | > 16 | > 16 | > 16 | > 16 | > 16 | >16 | > 16 | > 16 | MIC, E. CLOACAE [9]: > 16 µg/mL; MIC, E. COLI [10]: > 16 µg/mL; MIC, K. OXYTOCA [11]: > 16 µg/mL; MIC, K. PNEUMONIAE [12]: > 16 µg/mL; MIC, M. MORGANII [13]: > 16 µg/mL; MIC, P. MIRABILIS [14]: > 16 µg/mL; MIC, P. RETTGERI [15]: > 16 µg/mL; MIC, P. STUARTII [16]: > 16 µg/mL; MIC, P. VULGARIS [17]: > 16 µg/mL; MIC, S. LIQUEFACIENS [18]: > 16 µg/mL; MIC, S. MALTOPHILIA [19]: > 16 µg/mL; MIC, S. MARCESCENS [20]: > 16 µg/mL

Source: patent US8835476B2, “Synthesis of novel antimicrobials” (priority 2005, dated 2014)
